# Data taken from patent publication US9517265B2, “Methods for the prevention and/or treatment of memory impairment” (The Governing Council of the University of Toronto, priority 2010, dated 2016).
# Entries after “also recorded” stand apart in the source; their conditions may differ. Like-named read-outs stand apart in the source and are kept apart here.
# Assays:
# [1] = Tail-clamp withdrawal assay (MAC of isoflurane) and recovery of righting reflex; assay type: in vivo, mice
# Procedure: The MAC value was calculated as the mean value of these two concentrations.
# Elevated plus maze = assay type: in vivo, mice
# Description: Anxiety levels were studied using an elevated plus maze consisting of an acrylic glass apparatus in the shape of a cross (45 cm long×7 cm wide, with a central region of 7 cm×7 cm). Two opposing arms were enclosed with opaque white plastic walls (28 cm high, closed arms), whereas the other two opposing arms were left open (open arms). […] An observer blinded to treatment group recorded the position of each mouse on the maze using Observer software. The time spent in the center and in the open and closed arms were measured over 5 min. In addition, motor activity was quantified to study locomotion.
# α5GABAA receptors [2] = target: T1, α5GABAA receptors (Mus musculus, UniProt P22723+Q8BHJ7)
# T1 sequence (Q8BHJ7 32-463 limits assumed): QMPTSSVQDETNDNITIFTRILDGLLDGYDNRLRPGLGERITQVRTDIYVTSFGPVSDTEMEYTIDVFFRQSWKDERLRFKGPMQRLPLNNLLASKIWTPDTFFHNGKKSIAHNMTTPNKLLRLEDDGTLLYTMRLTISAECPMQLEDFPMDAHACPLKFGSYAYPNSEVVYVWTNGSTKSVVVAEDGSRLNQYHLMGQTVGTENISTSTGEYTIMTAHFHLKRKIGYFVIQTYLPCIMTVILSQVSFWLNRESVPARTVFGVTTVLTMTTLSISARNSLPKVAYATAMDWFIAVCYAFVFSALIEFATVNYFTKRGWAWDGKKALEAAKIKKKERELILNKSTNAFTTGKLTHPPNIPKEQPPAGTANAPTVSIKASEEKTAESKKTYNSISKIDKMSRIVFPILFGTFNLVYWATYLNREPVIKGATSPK
# T1 sequence (P63080 26-473 partner): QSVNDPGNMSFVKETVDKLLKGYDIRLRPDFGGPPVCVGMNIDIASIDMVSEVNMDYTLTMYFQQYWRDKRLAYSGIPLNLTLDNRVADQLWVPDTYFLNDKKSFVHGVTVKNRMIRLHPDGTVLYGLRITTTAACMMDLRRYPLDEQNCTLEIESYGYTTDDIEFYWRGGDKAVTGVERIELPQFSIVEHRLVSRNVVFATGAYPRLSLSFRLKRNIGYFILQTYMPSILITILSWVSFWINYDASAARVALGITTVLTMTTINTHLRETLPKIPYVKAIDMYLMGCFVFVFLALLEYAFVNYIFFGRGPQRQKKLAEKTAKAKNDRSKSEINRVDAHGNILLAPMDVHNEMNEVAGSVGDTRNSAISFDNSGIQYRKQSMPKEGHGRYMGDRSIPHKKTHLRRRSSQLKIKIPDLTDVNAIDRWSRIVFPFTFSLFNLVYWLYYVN
# T1 sequence (P22723 39-474): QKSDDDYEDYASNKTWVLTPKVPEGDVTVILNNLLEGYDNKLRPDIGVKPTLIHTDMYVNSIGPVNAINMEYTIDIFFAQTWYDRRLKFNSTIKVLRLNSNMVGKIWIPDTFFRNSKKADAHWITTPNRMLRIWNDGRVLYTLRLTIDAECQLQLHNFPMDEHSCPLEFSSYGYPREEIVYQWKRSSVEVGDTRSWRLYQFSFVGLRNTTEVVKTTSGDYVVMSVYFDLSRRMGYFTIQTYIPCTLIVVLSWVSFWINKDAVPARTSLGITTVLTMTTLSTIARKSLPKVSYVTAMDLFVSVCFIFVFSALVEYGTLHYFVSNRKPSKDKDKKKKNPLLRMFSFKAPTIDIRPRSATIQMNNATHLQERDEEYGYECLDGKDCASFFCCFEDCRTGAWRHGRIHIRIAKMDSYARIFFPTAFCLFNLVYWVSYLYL
# α5GABAA receptors [3] = settings: 1 mg/kg intraperitoneal; cited from earlier work
# [4] = system: α1, α2 and α3 subunit-containing GABAA receptors; settings: 1 mg/kg intraperitoneal; cited from earlier work
# α5GABAARs = α5GABAARs (Mus musculus, UniProt P22723+Q8BHJ7); settings: WT mice, cited from earlier work
# Sequence of α5GABAARs (Q8BHJ7 32-463 limits assumed): as the sequence (Q8BHJ7 32-463 limits assumed) above
# Sequence of α5GABAARs (P63080 26-473 partner): as the sequence (P63080 26-473 partner) above
# Sequence of α5GABAARs (P22723 39-474): as the sequence (P22723 39-474) above
# α5GABAA receptors [5] = target: T1, α5GABAA receptors; assay: Fear conditioning (contextual and cued) after isoflurane anesthesia; assay type: in vivo, C57BL6/J mice; set-up: from tissue; host or cells: brain of living mice (behavioural tests); settings: for effect on memory deficit after isoflurane (in words): L-655,708 given before isoflurane; for freezing score to context, short-term memory: tested 30 min after training
# Procedure: To prevent hypothermia during anesthesia, the floor of the chamber was warmed with a heating blanket. […] The mouse was then either returned to its home cage and allowed to recover for 24 h (24-h groups) or taken to a holding cage in an adjacent room (1-h groups). For continuity and to ensure that the experimenter who performed the fear-conditioning studies was blinded to the treatment group, mice that were allowed to recover for 24 h were placed back in a heated for 45 min before the behavioral experiments. FIGS. 1A and 1B summarize the time course of the experimental procedures. In FIG. 1A, each stage of the experimental paradigm is represented by chronological boxes and cartoons. Relative time is indicated below the boxes (t=0, start of fear conditioning training). The duration of each stage is inset at the bottom left. […] Four groups of isoflurane-treated subjects were used (1 h recovery+L-655,708; 1 h recovery+vehicle; 24 h recovery+L-655,708; 24 h recovery+vehicle). Two oxygen-control group was used (1 h recovery+L-655,708; 1 h recovery+vehicle). 10 min prior to fear conditioning, subjects were examined in the elevated plus maze (EPM). Subjects were tested for short-term memory (STM) and long-term memory (LTM) of the context and tone.
# Testing of memory function was performed using two fear-conditioning paradigms. These tests study the ability of mice to learn and remember an association between an aversive stimulus (foot shock) and non-aversive or neutral stimuli (environmental context or an auditory cue). […] Each mouse was introduced to the fear conditioning chamber (50 cm wide×15 cm deep×15 cm high, Process Control Fear Conditioning Monitor GmbH 303410, Technical & Scientific Equipment Systems Inc., Chesterfield, Mo.). The chamber was illuminated with an interior overhead light (50 lx) and was equipped with a stainless steel grid floor connected to a constant-current shock generator. Each mouse was allowed to explore the chamber for 3 min before presentation of a pulsating tone (80 dB, 3600 Hz) which persisted for 30 s. The tone was followed immediately by a mild foot shock (0.7 mA for 0.5 s). The mouse was allowed to explore the chamber for a further 30 s after the shock to study post-shock freezing.
# Freezing was scored using Observer software (Noldus Information Technology, Wagoningen, The Netherlands), by an experimenter who was blinded to the treatment groups. Before each new training session, the chamber was cleaned with 70% ethanol to mask and eliminate odors from the previous mouse.
# Short-term memory for contextual learning was probed 30 min after training by re-exposed the mice to the same fear conditioning chamber for […]. Long-term memory for contextual learning was studied 2 days (48 h) after conditioning by re-exposing the mice to the conditioning chamber. Short-term memory for cued learning was determined 90 min after training by first allowing the mice to explore a modified chamber scented with 5% acetic acid and containing a plastic floor and cardboard walls and then after 3 min, re-presenting the tone (2-Hz pulsating tone, 80 dB, 3600 Hz) for 3 min. Non-specific freezing was measured during the exploration of the novel chamber prior to presenting the tone. Freezing scores to study recall were measured during presentation of the tone. Long-term memory for cued learning was determined by introducing the mice into the modified chamber and presenting the tone 2 days (48 h) after conditioning.
# [6] = tested 2 days after conditioning, trained 1 h after isoflurane
smiles,measurement,setting,value
"CCOC(=O)c1ncn2c1[C@@H]1CCCN1C(=O)c1cc(OC)ccc1-2 [L-655,708]",time to self-right after the immobilizing dose of isoflurane,"[1]; L-655,708 or vehicle pretreatment, n=9",151 ± 27 s
same,effect on MAC of isoflurane (in words),"[1]; mouse, in vivo",did not change the MAC value for isoflurane
same,immobilizing dose (MAC value) of isoflurane,"[1]; tail-clamp, mice pretreated with L-655,708 0.7 mg/kg s.c. (row L-655,708) or vehicle (row isoflurane), n=17",1.33±0.02
same,total number of visits to the middle area,"Elevated plus maze; 1 h Iso, vehicle (row isoflurane) or L-655,708",17.3±7.0
same,total number of visits to the middle area,Elevated plus maze; 1 h O2,19.5±8.5
same,total number of visits to the middle area,"Elevated plus maze; 24 h Iso, vehicle (row isoflurane) or L-655,708",13.6±7.1
same,memory performance of Gabra5−/− mice (in words),α5GABAA receptors [2]; 24 h after anesthesia,did not affect the memory performance of Gabra5−/− mice
same,"discrimination ratio, short-term memory","α5GABAA receptors [2]; Gabra5−/− mice, L-655,708 0.70 mg/kg i.p. 10 min before isoflurane",0.62±0.05
same,"discrimination ratio, short-term memory","α5GABAA receptors [2]; Gabra5−/− mice, L-655,708 0.70 mg/kg i.p. 10 min before vehicle gas",0.64±0.05
same,effect on isoflurane-induced recognition memory deficit (in words),"α5GABAA receptors [2]; L-655,708 0.35 mg/kg 24 h after isoflurane, 30 min before training","restored normal memory performance in groups that were exposed to isoflurane; also recorded: fully reversed short-term memory deficits; also recorded: completely reversed the deficit in recognition memory; also recorded: reverses memory deficits when administered 24 h after exposure to the anesthetic isoflurane; also recorded: fully reversed by L-655,708"
same,effect on isoflurane-induced recognition memory deficit (in words),"α5GABAA receptors [2]; L-655,708 0.7 mg/kg 24 h after isoflurane, 30 min before training",failed to reverse the memory deficit in isoflurane-treated mice
same,prevention of recognition memory deficit (in words),"α5GABAA receptors [2]; L-655,708 0.7 mg/kg before isoflurane",preferred the novel object
same,"discrimination ratio, short-term memory","α5GABAA receptors [2]; high-dose experiment: isoflurane + vehicle injection (row isoflurane) or + L-655,708 0.7 mg/kg 30 min before training",0.54±0.05
same,"discrimination ratio, short-term memory","α5GABAA receptors [2]; isoflurane + L-655,708 0.35 mg/kg i.p. 23.5 h after anesthesia, 30 min before training, n=11",0.68±0.03
same,exploratory behavior during training (in words),"α5GABAA receptors [2]; mouse, in vivo",did not influence the amount of time that mice spent with both objects
same,receptor occupancy of the α5GABAA receptor,α5GABAA receptors [3],64%
same,"occupancy of α1, α2 and α3 subunit-containing GABAA receptors",[4],18%
same,"trace fear memory, freezing scores (in words)","α5GABAARs; L-655,708 1 mg/kg i.p. 30 minutes prior to training",demonstrated increased freezing scores
same,"contextual fear memory, freezing score (in words)","α5GABAARs; etomidate or etomidate plus L-655,708 30 min prior to training",prevented the etomidate-induced memory deficit
same,effect on memory deficit after isoflurane (in words),α5GABAA receptors [5],"completely prevented memory deficits; also recorded: completely reversed the short-term memory deficit for contextual learning; also recorded: prevented the short-term memory deficit to the tone in mice trained 1 h after isoflurane; also recorded: had no effect on auditory recall in mice conditioned 24 h after exposure to isoflurane; also recorded: completely reversed by pretreatment with L-655,708; also recorded: did not reverse the long-term deficit in cued fear conditioning; also recorded: The impairment was prevented by pre-emptive treatment with L-655,708"
same,effect on memory deficit after isoflurane (in words),α5GABAA receptors [5]; listed as L-655-708,had no effect on freezing in the oxygen-treated mice
same,"freezing score to context, short-term memory",α5GABAA receptors [5]; oxygen-treated mice,80.1±6.4%
same,"freezing score to context, short-term memory","α5GABAA receptors [5]; trained 1 h after isoflurane (1 MAC, 1 h), L-655,708 0.7 mg/kg s.c. or vehicle 10 min before isoflurane",75.5±8.6%
same,"freezing score to context, short-term memory","α5GABAA receptors [5]; trained 24 h after isoflurane, L-655,708 0.7 mg/kg s.c. or vehicle before isoflurane",81.9±5.6%
same,"freezing score to auditory tone, short-term memory","α5GABAA receptors [5]; tested 90 min after conditioning, trained 1 h after isoflurane",49.1+8.8%
same,"freezing score to auditory tone, long-term memory",α5GABAA receptors [5]; [6],41.7±7.3%
same,"freezing score to context, long-term memory",α5GABAA receptors [5]; [6],72.3±4.9%
same,"freezing score to context, long-term memory","α5GABAA receptors [5]; tested 2 days after conditioning, trained 24 h after isoflurane",75.2±8.3%
